Assay results from ChEMBL document CHEMBL1157705, “Carbonic anhydrase inhibitors. Identification of selective inhibitors of the human mitochondrial isozymes VA and VB over the cytosolic isozymes I and II from a natural product-based phenolic library” (Bioorg Med Chem, 2010).

Assays:
[1] = biological target: Carbonic anhydrase 5B, mitochondrial (Homo sapiens) (UniProt Q9Y2D0)
Description: Inhibition of human recombinant carbonic anhydrase 5B by stopped flow CO2 hydration method

[2] = biological target: Carbonic anhydrase 2 (Homo sapiens) (UniProt P00918)
[3] = biological target: Carbonic anhydrase 1 (Homo sapiens) (UniProt P00915)
Sequence of Carbonic anhydrase 1 (Homo sapiens) (P00915 2-261 limits assumed): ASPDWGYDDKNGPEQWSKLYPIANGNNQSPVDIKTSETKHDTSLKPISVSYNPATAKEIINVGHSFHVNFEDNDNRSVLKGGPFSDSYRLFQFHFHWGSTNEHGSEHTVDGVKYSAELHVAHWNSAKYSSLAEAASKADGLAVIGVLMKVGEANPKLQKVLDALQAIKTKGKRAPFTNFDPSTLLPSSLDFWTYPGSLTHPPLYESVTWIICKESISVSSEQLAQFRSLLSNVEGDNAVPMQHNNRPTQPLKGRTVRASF

Sequence of Carbonic anhydrase 5B, mitochondrial (Homo sapiens) (Q9Y2D0 whole entry): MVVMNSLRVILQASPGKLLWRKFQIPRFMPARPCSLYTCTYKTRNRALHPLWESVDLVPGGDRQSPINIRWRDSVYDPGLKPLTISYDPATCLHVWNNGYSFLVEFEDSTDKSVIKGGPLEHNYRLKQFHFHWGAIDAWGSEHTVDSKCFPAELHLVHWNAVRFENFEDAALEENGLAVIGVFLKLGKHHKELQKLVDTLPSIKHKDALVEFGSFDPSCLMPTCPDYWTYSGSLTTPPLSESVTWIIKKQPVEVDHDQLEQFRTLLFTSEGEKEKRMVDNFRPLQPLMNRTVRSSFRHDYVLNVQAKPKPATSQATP

Row | Compound | Ki [1] [µM] | Ki [2] [µM] | Ki [3] [µM]
1 | COc1cc([C@@H]2[C@@H](C)[C@H](C)[C@H]2c2ccc(O)c(OC)c2)ccc1O | 0.069 | 11.7 | 368
2 | COCCNC(=O)Cc1ccc(O)c(Cl)c1 | 0.084 | 10.4 | 158
3 | OCCc1ccc(O)cc1 | 0.105 | 8.7 | 430
4 | O=C(O)/C=C/C(=O)O | 0.09 | 10.5 | 395
5 | COc1cc(/C=C2\N=C(N)NC2=O)ccc1O | 0.07 | 9.6 | 10.5
6 | O=C(Cc1ccc(O)c(Cl)c1)NCCc1ccccc1 | 0.091 | 9.8 | 9.6
7 | CCCCNC(=O)Cc1ccc(O)c(Cl)c1 | 0.081 | 9.4 | 10.7
8 | O=C(Cc1ccc(O)c(Cl)c1)NCc1ccccc1 | 0.085 | 11.4 | 10.5
9 | COc1cc([C@@H]2[C@@H](C)[C@@H](C)[C@@H]2c2ccc(O)c(OC)c2)ccc1O | 0.079 | 12.1 | 354
10 | O=C(O)Cc1ccc(O)cc1 | 0.107 | 10.3 | 309
11 | COc1cc(C[C@@H](C)[C@H](C)Cc2ccc(O)c(OC)c2)ccc1O | 0.071 | 230 | 307
12 | COC(=O)/C=C/C(=O)O | 0.098 | 7.5 | 284
